The text below walks through data of patent US4277474A, “Treatment of allergic symptoms with propanone derivatives” (Nippon Zoki Pharmaceutical Co., Ltd., priority 1978, dated 1981).

Where a name gives a salt, the structure may show the parent alone.

One series deals with Peritoneal cavity cells. Kind of series: Inhibitory effect on histamine release from sensitized peritoneal cavity cells. Particulars: for Net release rate: release not caused by antigen-antibody reaction deducted. Format: cell-based, rat (Wistar-strain). Also on record: Released histamine, fluorescence intensity / Residual histamine, fluorescence intensity / Total histamine, fluorescence intensity: unit not given here. As to the method:
The inhibitory effect on histamine release of the compounds according to the present invention was investigated as follows. […] These cells were suspended in a phosphoric acid buffer solution (containing 0.1% of gelatin) and each 0.5 ml portion of this suspension was taken in a polyethylene tube. 1 ml each of solutions of various concentrations of test compound and 0.5 ml of 200 μg/ml of ovalbumin solution were added therein. They were incubated for 20 minutes at 37° C. to measure the histamine release rate. The amount of histamine was measured by a modified Shore method using fluorescence.

The next series deals with homo PCA reaction. In words: Inhibitory effect on homo PCA reaction in rats. Format: in vivo. As to conditions: 200 mg/Kg peroral.
Series [1] concerns Hartley-strain male guinea pig. In words: Experimental atopic asthma in passively sensitized guinea pigs. Format: in vivo. As to conditions: 50 mg/kg peroral. As to the method:
[Levine, B. B. et al., J. Immunol., 106, 29(1971)] was injected at a dosage of 0.25 ml/guinea pig into the hearts of groups of Hartley-strain male guinea pig (a group consisting of four), each weighing 250-300 g, to make them passively sensitive. […] The rate of breathing and the ratio of expiration time to inspiration time were calculated from the velocity of breathing. As an antigen to induce the reaction 200 μg/kg of benzylpenicilloyl bovine serum albumin [(BPO)23 -BSA] obtained by the method of Levine et al. [Levine et al.; J. Clin. Invest., 47, 556 (1968)] was injected through a cannula into the jugular vein.

Another series deals with SRS-A. In words: Anti-SRS-A effect on guinea pig's ileum (Magnus method). As to the method: The anti-SRS-A effect of the compounds according to the present invention on guinea pig's ileum was measured by Magnus method. […] One minute thereafter, the ileum contraction inhibiting rate (%) was measured with use of 1 ml of 80% ethanol solution of SRS-A (150 mg/ml).
The nature of series [2]: Acute toxicity in mice (LD50, Litchfield-Wilcoxon). Particulars: mouse, in vivo, ICR male mice. As to the method: Acute toxicity tests were carried out by intraperitoneal or peroral administration of the compound according to the present invention to groups of 10 ICR-strain male mice (weighing 20 g on the average), and each LD50 value was determined by Litchfield-Wilcoxon Method.

With `Cc1ccc(C(=O)C(C)CN2CCCCC2)cc1` (centres unmarked) [2,4'-dimethyl-3-piperidinopropiophenone, reference compound], in the series on Peritoneal cavity cells (0.01 mM), the Histamine release rate worked out at 50.8%. Further, in the series on Peritoneal cavity cells (0.01 mM), the Net release rate amounted to 36.9%. Besides, in the series on Peritoneal cavity cells (Rattus norvegicus, 0.01 mM), the inhibition at 10 µM is 0%. For the same compound, the “inhibition of homo PCA reaction” value in the series with homo PCA reaction was “about 40%”. The “inhibition on the variation from the normal values exhibited in the control group (in words)” value in series [1] is on record as “less inhibitory effect than the compounds according to the present invention”. Moreover, the Expiration/inspiration was 90.2 ± 4.02% in series [1] (1 min, 1 h before induction); 93.9 ± 5.09% in series [1] (3 min, 1 h before induction); 94.3 ± 5.34% in series [1] (6 min, 1 h before induction); 96.6 ± 2.39% in series [1] (18 min, 1 h before induction); 94.8 ± 4.76% in series [1] (30 min, 1 h before induction); 93.9 ± 3.98% in series [1] (60 min, 1 h before induction). Further, the Expiration/inspiration was 104.3 ± 6.02% in series [1] (90 min, 1 h before induction); 107.0 ± 3.44% in series [1] (130 min, 1 h before induction); 109.3 ± 6.26% in series [1] (180 min, 1 h before induction); 100.0 ± 0.00% in series [1] (before test). Also, the Rate of breathing in series [1] (1 min, 1 h before induction) came out at 120.6 ± 4.98%; in series [1] (3 min, 1 h before induction) it was 98.5 ± 6.55%; in series [1] (6 min, 1 h before induction), 89.5 ± 3.36%; in series [1] (18 min, 1 h before induction), 91.3 ± 1.57%; in series [1] (30 min, 1 h before induction) it was 93.3 ± 2.80%; in series [1] (60 min, 1 h before induction), 86.9 ± 6.14%. For the same compound, the Rate of breathing in series [1] (90 min, 1 h before induction) was 84.6 ± 6.03%; in series [1] (130 min, 1 h before induction) it was 87.3 ± 4.44%; in series [1] (180 min, 1 h before induction), 87.5 ± 6.43%; in series [1] (before test) it was 100.0 ± 0.00%. The Volume of breathing in series [1] (1 min, 1 h before induction) is 123.4 ± 6.52%; in series [1] (3 min, 1 h before induction) it was 92.6 ± 8.29%; in series [1] (6 min, 1 h before induction), 96.7 ± 3.97%; in series [1] (18 min, 1 h before induction), 90.6 ± 1.52%; in series [1] (30 min, 1 h before induction), 91.4 ± 6.20%; in series [1] (60 min, 1 h before induction), 90.9 ± 4.47%. Also, the Volume of breathing in series [1] (90 min, 1 h before induction) is given as 91.0 ± 3.34%; in series [1] (130 min, 1 h before induction), 94.9 ± 4.71%; in series [1] (180 min, 1 h before induction), 93.8 ± 6.49%; in series [1] (before test) it was 100.0 ± 0.00%.
Take `Cc1ccc(C(=O)C(C)CN2CCN(C)CC2)cc1.Cl.Cl` (centres unmarked) [Example 14, 2,4'-dimethyl-3-(4-methylpiperazino)propiophenone dihydrochloride]: the results for the “ileum contraction inhibiting rate” value in the series on SRS-A (10^-4 g/ml), in the series with SRS-A (10^-5 g/ml) and in the series on SRS-A (10^-6 g/ml) were 58.0 ± 4.36%, 10.3 ± 7.88% and 10.3 ± 7.98%, respectively.
As for `CC(CN1CCCC1)C(=O)c1ccc2ccccc2c1` (stereo not drawn) [Example 6, 2-methyl-3-pyrrolidino-β-propionaphthone hydrochloride], the inhibition at 100 µM in the series on Peritoneal cavity cells (Rattus norvegicus, 0.1 mM, read-out: Inhibitory effect on histamine release) is 48%. Moreover, the “ileum contraction inhibiting rate” value in the series on SRS-A (10^-4 g/ml) is 100.0 ± 0%; with SRS-A (10^-5 g/ml) it was 63.0 ± 6.66%; in the series on SRS-A (10^-6 g/ml), 0.3 ± 0.33%.
Take `CC(CN(C)C)C(=O)c1ccc2ccccc2c1` (stereo not drawn) [Example 3, 2-methyl-3-dimethylamino-β-propionaphthone hydrochloride]: the “ileum contraction inhibiting rate” value in the series with SRS-A (10^-4 g/ml) was 91.3 ± 3.84%; in the series with SRS-A (10^-5 g/ml), 47.0 ± 9.50%; with SRS-A (10^-6 g/ml), 1.3 ± 0.88%.
For the compound `Cc1ccc(C(=O)C(C)CN2CCOCC2)cc1.Cl` (centres unmarked) [Example 12, 2,4'-dimethyl-3-morpholinopropiophenone hydrochloride], the “ileum contraction inhibiting rate” value in the series with SRS-A (10^-4 g/ml) is 69.7 ± 12.13%; in the series on SRS-A (10^-5 g/ml) it was 20.7 ± 5.61%; in the series on SRS-A (10^-6 g/ml) it was 8.3 ± 6.89%.
For the compound `CC(CN1CCOCC1)C(=O)c1ccc2ccccc2c1` (stereo not drawn) [Example 4, 2-methyl-3-morpholino-β-propionaphthone hydrochloride], in series [2] (ip, intraperitoneal), the LD50 was determined as 190 mg/kg. For the same compound, in series [2] (po, peroral), the LD50 was 540 mg/kg. Also, in the series on Peritoneal cavity cells (0.01 mM), the Histamine release rate came to 44.2%; the “Released histamine, fluorescence intensity” value amounted to 212; the “Residual histamine, fluorescence intensity” value is on record as 268; the “Total histamine, fluorescence intensity” value is 480. Moreover, the Net release rate in the series on Peritoneal cavity cells (0.01 mM) turned out to be 30.3%. For the same compound, the inhibition at 10 µM with Peritoneal cavity cells (Rattus norvegicus, 0.01 mM) was 7.4%. Moreover, in the series with SRS-A (10^-4 g/ml), the “ileum contraction inhibiting rate” value worked out at 96.7 ± 3.33%. Also, the “ileum contraction inhibiting rate” value in the series with SRS-A (10^-5 g/ml) is listed as 36.3 ± 14.19%. Moreover, in the series with SRS-A (10^-6 g/ml), the “ileum contraction inhibiting rate” value was 13.0 ± 12.50%.
Take `CCN(CC)CC(C)C(=O)c1ccc(C)cc1.Cl` (centres unmarked) [Example 11, 2,4'-dimethyl-3-diethylaminopropiophenone hydrochloride]: the “ileum contraction inhibiting rate” value in the series on SRS-A (10^-4 g/ml) amounted to 68.0 ± 13.05%; in the series on SRS-A (10^-5 g/ml), 0.3 ± 0.33%; in the series on SRS-A (10^-6 g/ml), 3.0 ± 3.00%.
Regarding `CCN1CCN(CC(C)C(=O)c2ccc(C)cc2)CC1.Cl.Cl` (centres unmarked) [Example 15, 2,4'-dimethyl-3-(4-ethylpiperazino)propiophenone dihydrochloride], the “ileum contraction inhibiting rate” value with SRS-A (10^-4 g/ml) came out at 69.7 ± 3.71%; in the series with SRS-A (10^-5 g/ml), 20.7 ± 6.12%; in the series on SRS-A (10^-6 g/ml) it was 0.3 ± 0.33%.

The LD50 is the dose at which mortality reaches 50%.
